These results are taken from patent US12343319B2, “Compositions and methods for treatment of diseases and disorders” (Atai Therapeutics Inc., priority 2023, dated 2025).

Where two headings read alike, the source gives them in different places.

The test system of one data set is Male Sprague-Dawley rats. Put plainly: Rat forced swim test, immobility frequency. It counts as in vivo. To be noted: 3 and 30 mg/kg, i.p. at 23.5, 16 and 0.5 hours prior; 5-minute swim test. Here is the method:
Male Sprague-Dawley rats were placed individually in clear acrylic swim chambers (40 cm height×20.3 cm diameter) filled to 16 cm for a 15-minute pre-swim session on day 1 and filled to 30 cm for a 5-minute swim test session 24 hours later. Rats (n=10 per treatment group) were administered compound 2-1 (3, 10, 30 mg/kg, i.p., 1 mL/kg, based on weight of the free base) or vehicle (40% (w/v) 2-HPBCD in water, i.p.) at 23.5, 16 and 0.5 hours prior to the swim test. The rapid-acting antidepressant, ketamine (10 mg/kg, i.p.), was included in the study as a positive control condition and injected once 24 hours prior to the swim test.

A short description of data set [1]: Terminal plasma and brain concentrations in mice. Format: in vivo. Conditions: C57BL/6J, mouse, intraperitoneal. The procedure:
Prior to the onset of procedures, animals were weighed and allocated into 5 groups by a statistician based on body weight. Animals sharing a cage were dosed with the same drug treatments to avoid cross contamination between groups. Animals were dosed intraperitoneally with psilocybin (3 mg/kg), or one of 3 doses of compound 2-2 (1 mg/kg, 3 mg/kg, 10 mg/kg). Dosing was to a timed scheduled. Animals were weighed prior to dosing and the body weight recorded. Food and water intake were not monitored. The animals were dosed at time “0” and then returned to the home cage. Behaviors of note after dosing were recorded. Each animal was humanely killed (by exposure to increasing CO2 concentration and confirmation of death by cervical dislocation) to allow terminal blood sampling to take place 15 minutes after dosing. The brain sampling was performed immediately after blood sampling was completed for each animal.
Post-mortem blood samples (approx. 0.5 ml) were collected from all animals by cardiac puncture for DMPK analysis, dispensed into a LH-coated tube. The blood samples were gently inverted, centrifuged promptly (2400 g for 5 minutes at 4° C.) and 150 μl of plasma from each animal was placed into a 96-well plate. Plasma samples from group B were stabilized with DTT (50 mM; 1:10). All plasma samples were frozen on dry ice and stored at approximately −80° C. prior to analysis. Whole brains were removed from all animals, rinsed briefly with saline and blot dried. The left and right frontal cortices (˜25 mg each frontal cortex) were dissected separately from the brain, weighed, placed in microtubes, frozen on dry ice and stored at −20° C. to measure receptor occupancy. The remaining brain tissue was weighed, placed in homogenization tubes, frozen on dry ice, and stored at −80° C. prior to transferring (on dry ice) to Signature DMPK with the plasma samples.

For data set [2], the target named is T1, 5-HT2A receptors in the mouse frontal cortex (Mus musculus, UniProt P35363).
T1 construct: Left frontal cortices from each animal were homogenized individually; from tissue
T1 sequence (P35363 whole entry): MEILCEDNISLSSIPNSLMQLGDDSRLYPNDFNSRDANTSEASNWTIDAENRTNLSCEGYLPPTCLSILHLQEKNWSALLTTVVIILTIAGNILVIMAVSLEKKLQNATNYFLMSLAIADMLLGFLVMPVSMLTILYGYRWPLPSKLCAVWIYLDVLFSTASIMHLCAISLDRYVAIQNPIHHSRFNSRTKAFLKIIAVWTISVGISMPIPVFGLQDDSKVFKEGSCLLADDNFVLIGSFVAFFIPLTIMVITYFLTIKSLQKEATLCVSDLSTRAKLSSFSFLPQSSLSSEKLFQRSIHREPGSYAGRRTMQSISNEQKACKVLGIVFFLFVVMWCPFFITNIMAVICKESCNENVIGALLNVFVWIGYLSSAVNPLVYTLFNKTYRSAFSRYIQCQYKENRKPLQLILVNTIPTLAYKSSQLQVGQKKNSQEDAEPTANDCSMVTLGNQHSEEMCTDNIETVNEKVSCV
The data set is described as follows: Ex vivo 5-HT2A receptor occupancy ([3H]cimbi-36) in mouse frontal cortex.

The next data set deals with male Sprague Dawley rats. Put plainly: Psilocybin operant drug discrimination in rats. Format: in vivo, rat. The procedure:
Thirty-six (36) male Sprague Dawley rats served as subjects. Rats had been trained to lever press for food in standard operant conditioning chambers controlled by Med-PC software (Med. Associates Inc., St. Albans, VT) followed by training to associate the right lever to a psilocybin stimulus (0.5 mg/kg, SC), and the left lever to a neutral stimulus (saline, SC). The sequence of psilocybin and saline injections were administered under a randomized design where neither condition was administered for more than 3 consecutive days. […] The rats continued to receive a daily food ration (˜18 g at day end) with ad libitum access to water in their home cages.
Test sessions continued until 50 pellets had been obtained or 30 min had elapsed. During these sessions, response rate was also measured. Three types of tests were conducted: • 1. Dose-response profile for compound 2-2 to generalize to the psilocybin cue. On test days, rats received a single compound 2-2 dose (1, 3, or 10 mg/kg, IP) 10 min prior to test. The distribution of vehicle vs. drug-paired lever presses was recorded as well as the rate of lever response. • 2. Effect of the 5-HT subtype selective antagonists, M100907 (5-HT2A receptor selective; Kehne et al, 1996) and SB242084 (5-HT2C receptor selective, Kennett et al, 1997) against the generalization of compound 2-2. On test days, the rats received a single dose (0.5 mg/kg IP) of either antagonist 30 min before compound 2-2 (10 mg/kg, IP), which was administered 10 min prior to testing. The distribution of vehicle vs. drug-paired lever presses was recorded as well as the rate of lever response. • 3. Time-course profile for compound 2-2 (10 mg/kg IP) to generalize to the psilocybin cue. On test days, the rats received a single compound 2-2 dose (10 mg/kg, IP) at various pretreatment times (i.e., 10 min, 30 min, 1 h, 2 h, 4 h, 8 h) prior to test. The distribution of vehicle vs. drug-paired lever presses was recorded as well as the rate of lever response.
Drug testing was conducted on a Tuesday and Friday with the animals run on either vehicle or training drug (psilocybin 0.5 mg/kg, SC) on intervening weekdays. Group sizes varied among doses and pretreatment times and tended to be higher under situations where the choice response was more variable. This adjustment was made in an attempt to get as reliable a measure of drug vs. vehicle discrimination as possible at that specific dose or pretreatment time.

What is called EC50 is the concentration giving half of the maximal effect.

As to `COc1ccc(OC)c(CCNCc2cc(C)cc(Cl)c2)c1` [Compound 2-1, N-(3-chloro-5-methylbenzyl)-2-(2,5-dimethoxyphenyl)ethan-1-amine], the “frequency of immobility compared to vehicle” value in the data set on Male Sprague-Dawley rats was “significantly decreased”.
On to `COc1ccc(OC)c(CCNCc2cc(C)cc(F)c2)c1` [Compound 2-2, 2-(2,5-dimethoxyphenyl)-N-(3-fluoro-5-methylbenzyl)ethan-1-amine], for which the concentration at 15 min in data set [1] (brain, 1 mg/kg, 1 mg/kg IP, read-out: Terminal Brain Conc (ng/g) at 15 min, Mean) amounted to 182 ng/g; in data set [1] (brain, 1 mg/kg, 1 mg/kg IP, read-out: Terminal Brain Free Concentration (uM) at 15 min, Mean) it was 0.01 µM; in data set [1] (brain, 1 mg/kg, 1 mg/kg IP, read-out: Terminal Brain Total Concentration (uM) at 15 min, Mean), 0.6 µM; in data set [1] (brain, 3 mg/kg, 3 mg/kg IP, read-out: Terminal Brain Free Concentration (uM) at 15 min, Mean) it was 0.039 µM; in data set [1] (brain, 10 mg/kg, 10 mg/kg IP, read-out: Terminal Brain Conc (ng/g) at 15 min, Mean), 3280 ng/g; in data set [1] (brain, 10 mg/kg, 10 mg/kg IP, read-out: Terminal Brain Free Concentration (uM) at 15 min, Mean), 0.175 µM. Also, the concentration at 15 min in data set [1] (brain, 10 mg/kg, 10 mg/kg IP, read-out: Terminal Brain Total Concentration (uM) at 15 min, Mean) turned out to be 10.8 µM; in data set [1] (plasma, 1 mg/kg, 1 mg/kg IP, read-out: Terminal Plasma Conc (ng/mL) at 15 min, Mean), 60.1 ng/mL; in data set [1] (plasma, 1 mg/kg, 1 mg/kg IP, read-out: Terminal Plasma Free Concentration (uM) at 15 min, Mean), 0.016 µM; in data set [1] (plasma, 1 mg/kg, 1 mg/kg IP, read-out: Terminal Plasma Total Concentration (uM) at 15 min, Mean), 0.2 µM; in data set [1] (plasma, 3 mg/kg, 3 mg/kg IP, read-out: Terminal Plasma Free Concentration (uM) at 15 min, Mean) it was 0.082 µM; in data set [1] (plasma, 10 mg/kg, 10 mg/kg IP, read-out: Terminal Plasma Conc (ng/mL) at 15 min, Mean), 1020 ng/mL. Further, the concentration at 15 min in data set [1] (plasma, 10 mg/kg, 10 mg/kg IP, read-out: Terminal Plasma Free Concentration (uM) at 15 min, Mean) stood at 0.277 µM; in data set [1] (plasma, 10 mg/kg, 10 mg/kg IP, read-out: Terminal Plasma Total Concentration (uM) at 15 min, Mean), 3.38 µM. In data set [2], the midpoint of the response, the EC50, lay at 1.93 µM. Also, the “ex vivo occupancy of 5-HT2A receptors (RO)” value in data set [2] (across 1, 3, 10 mg/kg IP) is on record as 21-60%. Moreover, the “brain concentration at 50% 5-HT2A RO” value in data set [2] (in brain) is reported as 1608 ng/g. Besides, in data set [2] (mouse, 1 mg/kg IP, 15 minutes post dosing, read-out: % Receptor Occupancy (RO)), the receptor occupancy at 1 mg/kg was determined as 21%. Also, in data set [2] (mouse, 1 mg/kg IP, 15 minutes post dosing, read-out: % of Control Binding), the remaining activity at 1 mg/kg stood at 79%. The receptor occupancy at 3 mg/kg in data set [2] (mouse, 3 mg/kg IP, 15 minutes post dosing, read-out: % Receptor Occupancy (RO)) stood at 37%. Besides, the remaining activity at 3 mg/kg in data set [2] (mouse, 3 mg/kg IP, 15 minutes post dosing, read-out: % of Control Binding) worked out at 63%. Besides, in data set [2] (mouse, 10 mg/kg IP, 15 minutes post dosing, read-out: % Receptor Occupancy (RO)), the receptor occupancy at 10 mg/kg amounted to 60%. The remaining activity at 10 mg/kg in data set [2] (mouse, 10 mg/kg IP, 15 minutes post dosing, read-out: % of Control Binding) was 40%. For the same compound, the ED50 in data set [2] (mouse, IP, non-linear regression, read-out: dose at 50% 5-HT2A RO) amounted to 6.14 mg/kg. Further, the “generalization to the psilocybin cue” value in the data set on male Sprague Dawley rats (10 mg/kg IP after M100907 0.5 mg/kg IP (30 min before)) was 2+1%; with male Sprague Dawley rats (10 mg/kg IP after SB242084 0.5 mg/kg IP (30 min before)) it was 71+14%; with male Sprague Dawley rats (10 mg/kg IP, 10 min prior to test (Veh pretreatment)) it was 91+8%; in the data set on male Sprague Dawley rats (10 mg/kg IP, pretreatment time 4 h) it was about 35%; in the data set on male Sprague Dawley rats (10 mg/kg IP, pretreatment times of 10 and 30 min), about 80%. Moreover, the response rate entry is reported as “no significant effect” in the data set with male Sprague Dawley rats (10 mg/kg IP following antagonist pretreatment); “minor effect” with male Sprague Dawley rats (10 mg/kg IP, across pretreatment times 10 min-8 h); “minor effects” in the data set with male Sprague Dawley rats (dose range 1-10 mg/kg IP). In addition, the rate of responding entry with male Sprague Dawley rats (10 mg/kg IP, only at 10 min post dose) is “modestly suppressed”.
